# From patent US9884821B2, “N1-cyclic amine-N5-substituted biguanide derivatives, methods of preparing the same and pharmaceutical composition comprising the same” (IMMUNOMET THERAPEUTICS INC., priority 2013, dated 2018)
# Counter-ions that a name gives are not always drawn.
# Legend:
# [1] = test system: AMPK; assay: AMPK activation effect (AMPK [pT172] ELISA) in MCF7 cells; assay type: cell-based, human; conditions: 24 hours; for AMPK activation effect (%) 10 μM / AMPK activation effect (%) 50 μM: AMPKα Thr172 phosphorylation relative to untreated cells; for AC150: concentration at which AMPK activation reached 150%
# Description: ELISA kit (Invitrogen, Catalog No. KH00651).
# MCF7 cells were cultured in a DMEM medium supplemented with 10% fatal bovine serum (commercially available from Gibco Life Technologies (US)). Thereafter, the cultured MCF7 cells were put into a 6-well plate with approximately 5×10^5 cells per well, and cultured in an incubator supplied with 5% CO2. Culture media were treated with the derivatives synthesized in the Examples at concentrations of 5, 10 and 50 uM, and then cultured for 24 hours. […] Subsequently, the cells were lysed according to a method presented in the operation manual of the AMPK [pT172] ELISA kit, and 20 μg of a cell lysate was then yielded through protein assay. Thereafter, the AMPK activation effect was obtained by determining a degree of phosphorylation of a 172nd threonine residue (Thr172) of the AMPKα from the cell lysate according to the method presented in the operation manual of the AMPK [pT172] ELISA kit.
# [2] = test system: HCT116 cells; assay: Effect of inhibiting cancer cell proliferation (MTT) in HCT116 cells; assay type: cell-based, human; conditions: Homo sapiens, HCT-116, 48 h; for inhibition at 100 µM: read-out: Cell growth inhibition (%) at 100 μM
# Text: HCT116 cells derived from human colorectal cancer were used, and an effect of inhibiting cancer cell proliferation of the biguanide derivative was confirmed by measuring a concentration value (cell growth inhibition concentration, GIC50) at which cell growth was inhibited by 50% using a 3-(4,5-dimethylthiazol-2-yl)-2,5-diphenyltetrazolium bromide (MTT) reagent.
# First, HCT116 cells (purchased from the KCLB) were put on a 96-well plate and cultured in a DMEM medium supplemented with 10% fatal bovine serum (commercially available from Gibco Life Technologies (US)) for 16 hours so that approximately 5,000 cells were counted in each well. Subsequently, to obtain the GIC50 value of each compound, the culture media were treated with 100 μM, 25 μM, 6.25 μM, 1.56 μM or 0.39 μM of the compound, and then cultured for 48 hours. In order to determine whether the cells survived after treatment with the compounds, MTT (commercially available from AMRESCO (US)) was added to the culture media which were then cultured for another 3 hours. Formed formazane crystals were dissolved using dimethyl sulfoxide (DMSO) and the absorbance of the resulting solution was measured at 560 nm. After the 48-hour culture, a ratio of a living cell count on a well plate treated with the compounds synthesized in the Examples to a cell count cultured on a well plate not treated with the compound was indicated as cell viability (%) according to the concentration of each treated compound. The cell viability (%) was used to plot a cell viability curve graph and calculate a concentration (GIC50) value of the compound at which the growth was inhibited by 50%, thereby confirming the inhibition effect of cancer cell proliferation.
SMILES,GI50 [2],AMPK activation effect (%) 10 μM [1],AC150 [1],inhibition at 100 µM [2],AMPK activation effect (%) 50 μM [1]
"Cl.N=C(NC(=N)N1CC=CCC1)Nc1cccc(OC(F)(F)F)c1 [Example 30, N1-1,2,3,6-tetrahydropyridine-N5-(3-trifluoromethoxy)phenyl biguanide hydrochloride]",7.5 µM,703%,0.53 µM,99.7%,
"Cl.N=C(NC(=N)N1CC=CCC1)Nc1cccc(C(F)(F)F)c1 [Example 31, N1-1,2,3,6-tetrahydropyridine-N5-(3-trifluoromethyl)phenyl biguanide hydrochloride]",7.8 µM,391%,1.8 µM,99.5%,
"Cl.N=C(NC(=N)N1CC=CCC1)Nc1ccc(F)c(C(F)(F)F)c1 [Example 32, N1-1,2,3,6-tetrahydropyridine-N5-(4-fluoro, 3-trifluoromethyl)phenyl biguanide hydrochloride]",7.9 µM,837%,0.62 µM,99.4%,
"Cl.N=C(NC(=N)N1CC=CCC1)Nc1ccc(Cl)c(C(F)(F)F)c1 [Example 33, N1-1,2,3,6-tetrahydropyridine-N5-(4-chloro, 3-trifluoromethyl)phenyl biguanide hydrochloride]",3.7 µM,992%,0.79 µM,99.4%,
"Cl.N=C(NC(=N)N1CC=CCC1)Nc1ccc(OC(F)(F)F)c(F)c1 [Example 34, N1-1,2,3,6-tetrahydropyridine-N5-(3-fluoro, 4-trifluoromethoxy)phenyl biguanide hydrochloride]",6.6 µM,925%,0.29 µM,99.4%,
"COc1cc(NC(=N)NC(=N)N2CC=CCC2)cc(OC)c1.Cl [Example 38, N1-1,2,3,6-tetrahydropyridine-N5-(3,5-dimethoxy)phenyl biguanide hydrochloride]",108 µM,97%,>50 µM,47.8%,117%
"COc1ccc(NC(=N)NC(=N)N2CC=CC2)cc1.Cl [Example 42, N1-1,2-dihydropyrrole-N5-(4-methoxyl)phenyl biguanide hydrochloride]",> 100 µM,157%,14.7 µM,14%,210%
"COc1cccc(NC(=N)NC(=N)N2CC=CC2)c1.Cl [Example 43, N1-1,2-dihydropyrrole-N5-(3-methoxyl)phenyl biguanide hydrochloride]",114 µM,200%,4.7 µM,44.9%,466%
"Cl.N=C(NC(=N)N1CC=CC1)Nc1ccccc1 [Example 44, N1-1,2-dihydropyrrole-N5-phenyl biguanide hydrochloride]",> 100 µM,289%,1.7 µM,27.8%,577%
"COc1cc(NC(=N)NC(=N)N2CC=CC2)cc(OC)c1.Cl [Example 45, N1-1,2-dihydropyrrole-N5-(3,5-dimethoxy)phenyl biguanide hydrochloride]",107 µM,202%,4.8 µM,47.2%,299%
"Cl.N=C(NC(=N)N1CC=CC1)Nc1ccc(F)c(C(F)(F)F)c1 [Example 46, N1-1,2-dihydropyrrole-N5-(4-fluoro, 3-trifluoromethyl)phenyl biguanide hydrochloride]",12 µM,448%,1.6 µM,100%,
"Cl.N=C(NC(=N)N1CC=CC1)Nc1ccc(C(F)(F)F)c(F)c1 [Example 47, N1-1,2-dihydropyrrole-N5-(3-fluoro, 4-trifluoromethyl)phenyl biguanide hydrochloride]",10.8 µM,758%,1.0 µM,100%,
"Cc1cccc(NC(=N)NC(=N)N2CC=CC2)c1.Cl [Example 51, N1-1,2-dihydropyrrole-N5-(3-methyl)phenyl biguanide hydrochloride]",102 µM,241%,3.1 µM,48.7%,409%
"Cl.N=C(NC(=N)N1CC=CC1)Nc1cccc(OC(F)(F)F)c1 [Example 52, N1-1,2-dihydropyrrole-N5-(3-trifluoromethoxy)phenyl biguanide hydrochloride]",15.4 µM,352%,2.7 µM,100%,

# The next lines start with results.
GI50 [2],SMILES,AMPK activation effect (%) 10 μM [1],AC150 [1],inhibition at 100 µM [2],AMPK activation effect (%) 50 μM [1]
8.4 µM,"Cl.N=C(NC(=N)N1CC=CCC1)Nc1ccc(OC(F)(F)F)cc1 [Example 28, N1-1,2,3,6-tetrahydropyridine-N5-(4-trifluoromethoxy)phenyl biguanide hydrochloride]",732%,0.15 µM,100%,
9.5 µM,"Cl.N=C(NC(=N)N1CC=CCC1)Nc1ccc(C(F)(F)F)cc1 [Example 29, N1-1,2,3,6-tetrahydropyridine-N5-(4-trifluoromethyl)phenyl biguanide hydrochloride]",551%,1.3 µM,100%,
18.4 µM,"Cl.N=C(NC(=N)N1CC=CCC1)Nc1ccc(Cl)cc1 [Example 35, N1-1,2,3,6-tetrahydropyridine-N5-(4-chloro)phenyl biguanide hydrochloride]",314%,2.4 µM,99.1%,
11.2 µM,"N=C(NC(=N)N1CC=CCC1)Nc1ccc(Br)cc1 [Example 36, N1-1,2,3,6-tetrahydropyridine-N5-(4-bromo)phenyl biguanide hydrochloride]",568%,0.87 µM,99%,
135 µM,"Cl.N=C(NC(=N)N1CC=CCC1)Nc1ccc(F)cc1 [Example 37, N1-1,2,3,6-tetrahydropyridine-N5-(4-fluoro)phenyl biguanide hydrochloride]",187%,4.2 µM,45.3%,522%
124 µM,"Cl.N=C(NC(=N)N1CC=CCC1)Nc1ccccc1 [Example 39, N1-1,2,3,6-tetrahydropyridine-N5-phenyl biguanide hydrochloride]",96%,67.2 µM,39.8%,138%
> 100 µM,"COc1ccc(NC(=N)NC(=N)N2CC=CCC2)cc1.Cl [Example 40, N1-1,2,3,6-tetrahydropyridine-N5-(4-methoxyl)phenyl biguanide hydrochloride]",122%,37.8 µM,37.4%,163%
88.2 µM,"COc1cccc(NC(=N)NC(=N)N2CC=CCC2)c1.Cl [Example 41, N1-1,2,3,6-tetrahydropyridine-N5-(3-methoxyl)phenyl biguanide hydrochloride]",125%,22.4 µM,55.9%,201%
42.5 µM,"Cc1ccc(NC(=N)NC(=N)N2CC=CCC2)cc1.Cl [Example 48, N1-1,2,3,6-tetrahydropyridine-N5-(4-methyl)phenyl biguanide hydrochloride]",178%,4.9 µM,97.6%,691%
57 µM,"Cc1cccc(NC(=N)NC(=N)N2CC=CCC2)c1.Cl [Example 49, N1-1,2,3,6-tetrahydropyridine-N5-(3-methyl)phenyl biguanide hydrochloride]",319%,1.9 µM,91.8%,917%
